The kinase profiling compilation of Christmann-Franck et al. (2016)

biological target: PRKCZ (human) (UniProt Q05513); assay: radiometric filter-binding kinase assay; conditions: compound 100.0 µM; ATP 5 µM
Sequence (Q05513 whole entry, looked up): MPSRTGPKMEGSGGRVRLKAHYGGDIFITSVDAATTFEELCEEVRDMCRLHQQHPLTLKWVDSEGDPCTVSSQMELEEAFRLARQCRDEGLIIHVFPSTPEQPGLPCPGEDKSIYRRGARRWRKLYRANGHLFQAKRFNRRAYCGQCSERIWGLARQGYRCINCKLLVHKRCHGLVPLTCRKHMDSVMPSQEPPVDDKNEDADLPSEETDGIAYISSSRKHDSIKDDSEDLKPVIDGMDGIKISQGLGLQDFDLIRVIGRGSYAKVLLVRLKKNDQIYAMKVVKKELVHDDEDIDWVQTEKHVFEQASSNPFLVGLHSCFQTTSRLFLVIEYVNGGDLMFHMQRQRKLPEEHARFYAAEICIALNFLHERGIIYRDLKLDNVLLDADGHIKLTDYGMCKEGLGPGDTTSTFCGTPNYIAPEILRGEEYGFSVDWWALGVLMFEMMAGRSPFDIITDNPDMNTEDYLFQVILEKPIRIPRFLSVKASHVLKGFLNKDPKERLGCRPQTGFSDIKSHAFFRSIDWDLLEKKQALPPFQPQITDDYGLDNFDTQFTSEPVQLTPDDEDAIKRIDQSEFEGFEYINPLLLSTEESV

First: O=C(Nc1cnc2[nH]ccn2c1=O)c1ccccc1
Second: O=c1c(NC(=S)NCc2ccccc2)cnc2[nH]ccn12
The inhibition of the first is higher: 3% for the first, 0% for the second.

First: CC(C)(C)Nc1c(COCc2ccccc2)nc2[nH]cnn12
Second: CC(=O)Nc1nc2cnc(-c3ccccc3)cn2n1
The inhibition of the first is lower: 0% for the first, 11% for the second.

`CC1CN(c2nc3ccccn3c(=O)c2N)CC(C)O1` (stereo unspecified) and `O=C(c1cccc(-c2cc3c(=O)[nH]cnc3s2)c1)N1CCOCC1` are the same in inhibition: 0% for the first, 0% for the second.

biological target: CaMK1 (human) (UniProt Q14012); assay: radiometric filter-binding kinase assay; conditions: compound 100.0 µM; ATP 50 µM

Going from `O=C(Nc1cnc2[nH]ccn2c1=O)c1ccccc1` to `O=c1c(NC(=S)NCc2ccccc2)cnc2[nH]ccn12`, the inhibition falls from 11% to 6%.

First: CC(C)(C)Nc1c(COCc2ccccc2)nc2[nH]cnn12
Second: CC(=O)Nc1nc2cnc(-c3ccccc3)cn2n1
The inhibition of the first is higher: 83% for the first, 17% for the second.

Compared with `CC1CN(c2nc3ccccn3c(=O)c2N)CC(C)O1` (stereo unspecified), `O=C(c1cccc(-c2cc3c(=O)[nH]cnc3s2)c1)N1CCOCC1` is higher in inhibition: 35% for the first, 75% for the second.

biological target: EPHB1 (human) (UniProt P54762); assay: radiometric filter-binding kinase assay; conditions: compound 100.0 µM; ATP 20 µM
Sequence (P54762 whole entry, looked up): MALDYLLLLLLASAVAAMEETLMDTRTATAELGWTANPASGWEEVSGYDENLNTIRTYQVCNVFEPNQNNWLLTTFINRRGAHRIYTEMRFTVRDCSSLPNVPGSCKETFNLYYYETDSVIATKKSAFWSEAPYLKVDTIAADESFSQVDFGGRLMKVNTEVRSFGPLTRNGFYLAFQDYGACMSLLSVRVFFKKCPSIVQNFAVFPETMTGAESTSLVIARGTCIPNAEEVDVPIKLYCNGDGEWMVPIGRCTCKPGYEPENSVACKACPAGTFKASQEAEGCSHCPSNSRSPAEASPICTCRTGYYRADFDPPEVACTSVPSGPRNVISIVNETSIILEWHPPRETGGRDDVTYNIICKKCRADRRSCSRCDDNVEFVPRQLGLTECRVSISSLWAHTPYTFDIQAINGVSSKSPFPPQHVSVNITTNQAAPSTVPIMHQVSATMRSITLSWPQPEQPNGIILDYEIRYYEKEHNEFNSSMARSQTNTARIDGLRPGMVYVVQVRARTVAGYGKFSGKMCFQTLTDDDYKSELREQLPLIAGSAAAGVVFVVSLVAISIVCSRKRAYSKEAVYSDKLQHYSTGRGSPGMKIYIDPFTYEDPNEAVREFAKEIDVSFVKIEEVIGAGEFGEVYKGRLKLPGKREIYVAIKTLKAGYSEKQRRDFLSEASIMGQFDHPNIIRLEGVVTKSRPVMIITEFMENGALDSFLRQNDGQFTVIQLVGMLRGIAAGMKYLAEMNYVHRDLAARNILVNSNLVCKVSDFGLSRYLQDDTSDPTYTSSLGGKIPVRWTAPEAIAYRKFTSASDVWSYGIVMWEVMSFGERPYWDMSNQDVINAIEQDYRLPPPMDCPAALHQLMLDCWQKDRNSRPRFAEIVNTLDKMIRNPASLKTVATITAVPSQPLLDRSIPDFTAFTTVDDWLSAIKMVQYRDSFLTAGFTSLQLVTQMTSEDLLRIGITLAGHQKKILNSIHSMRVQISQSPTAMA

Going from `O=C(Nc1cnc2[nH]ccn2c1=O)c1ccccc1` to `O=c1c(NC(=S)NCc2ccccc2)cnc2[nH]ccn12`, the inhibition falls from 17% to 3%.

First: CC(C)(C)Nc1c(COCc2ccccc2)nc2[nH]cnn12
Second: CC(=O)Nc1nc2cnc(-c3ccccc3)cn2n1
The inhibition of the first is lower: 0% for the first, 22% for the second.

`CC1CN(c2nc3ccccn3c(=O)c2N)CC(C)O1` (stereo unspecified) and `O=C(c1cccc(-c2cc3c(=O)[nH]cnc3s2)c1)N1CCOCC1` are the same in inhibition: 0% for the first, 0% for the second.

biological target: YES1 (human) (UniProt P07947); assay: radiometric filter-binding kinase assay; conditions: compound 100.0 µM; ATP 20 µM

Going from `O=C(Nc1cnc2[nH]ccn2c1=O)c1ccccc1` to `O=c1c(NC(=S)NCc2ccccc2)cnc2[nH]ccn12`, the inhibition falls from 11% to 0%.

Going from `CC(C)(C)Nc1c(COCc2ccccc2)nc2[nH]cnn12` to `CC(=O)Nc1nc2cnc(-c3ccccc3)cn2n1`, the inhibition rises from 4% to 35%.

Going from `CC1CN(c2nc3ccccn3c(=O)c2N)CC(C)O1` (stereo unspecified) to `O=C(c1cccc(-c2cc3c(=O)[nH]cnc3s2)c1)N1CCOCC1`, the inhibition falls from 57% to 0%.

biological target: CSNK2A1 (human) (UniProt P68400); assay: radiometric filter-binding kinase assay; conditions: compound 100.0 µM; ATP 5 µM

Going from `O=C(Nc1cnc2[nH]ccn2c1=O)c1ccccc1` to `O=c1c(NC(=S)NCc2ccccc2)cnc2[nH]ccn12`, the inhibition falls from 11% to 3%.

First: CC(C)(C)Nc1c(COCc2ccccc2)nc2[nH]cnn12
Second: CC(=O)Nc1nc2cnc(-c3ccccc3)cn2n1
The inhibition of the first is lower: 5% for the first, 11% for the second.

First: CC1CN(c2nc3ccccn3c(=O)c2N)CC(C)O1 (stereo unspecified)
Second: O=C(c1cccc(-c2cc3c(=O)[nH]cnc3s2)c1)N1CCOCC1
The inhibition of the first is higher: 97% for the first, 41% for the second.

biological target: EPHB4 (human) (UniProt P54760); assay: radiometric filter-binding kinase assay; conditions: compound 100.0 µM; ATP 5 µM
Sequence (P54760 whole entry, looked up): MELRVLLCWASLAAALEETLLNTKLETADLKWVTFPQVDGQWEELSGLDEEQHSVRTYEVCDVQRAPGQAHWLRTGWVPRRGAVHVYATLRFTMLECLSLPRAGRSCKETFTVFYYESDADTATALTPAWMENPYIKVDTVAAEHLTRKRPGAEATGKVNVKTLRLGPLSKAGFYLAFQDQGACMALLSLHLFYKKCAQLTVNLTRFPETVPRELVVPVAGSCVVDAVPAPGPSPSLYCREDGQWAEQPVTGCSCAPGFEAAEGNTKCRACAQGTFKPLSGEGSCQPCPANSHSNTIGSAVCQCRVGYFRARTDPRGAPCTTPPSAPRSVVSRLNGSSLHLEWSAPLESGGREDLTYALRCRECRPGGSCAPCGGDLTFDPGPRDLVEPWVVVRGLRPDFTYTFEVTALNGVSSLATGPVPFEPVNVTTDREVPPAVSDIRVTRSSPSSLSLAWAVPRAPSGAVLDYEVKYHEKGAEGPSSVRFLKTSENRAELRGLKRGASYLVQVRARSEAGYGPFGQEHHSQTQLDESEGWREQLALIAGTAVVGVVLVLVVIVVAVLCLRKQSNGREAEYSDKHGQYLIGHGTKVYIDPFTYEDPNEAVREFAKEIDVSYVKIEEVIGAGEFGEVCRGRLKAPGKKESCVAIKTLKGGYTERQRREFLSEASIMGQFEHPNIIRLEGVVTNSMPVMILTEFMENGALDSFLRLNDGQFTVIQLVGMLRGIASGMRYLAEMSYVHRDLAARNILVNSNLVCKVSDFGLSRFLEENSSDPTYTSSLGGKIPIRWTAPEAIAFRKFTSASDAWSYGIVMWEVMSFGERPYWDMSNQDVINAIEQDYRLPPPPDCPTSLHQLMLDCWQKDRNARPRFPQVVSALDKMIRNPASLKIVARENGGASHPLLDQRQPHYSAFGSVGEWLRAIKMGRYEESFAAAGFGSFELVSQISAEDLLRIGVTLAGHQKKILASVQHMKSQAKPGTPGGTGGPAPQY

Going from `O=C(Nc1cnc2[nH]ccn2c1=O)c1ccccc1` to `O=c1c(NC(=S)NCc2ccccc2)cnc2[nH]ccn12`, the inhibition rises from 5% to 9%.

Going from `CC(C)(C)Nc1c(COCc2ccccc2)nc2[nH]cnn12` to `CC(=O)Nc1nc2cnc(-c3ccccc3)cn2n1`, the inhibition falls from 13% to 11%.

Going from `CC1CN(c2nc3ccccn3c(=O)c2N)CC(C)O1` (stereo unspecified) to `O=C(c1cccc(-c2cc3c(=O)[nH]cnc3s2)c1)N1CCOCC1`, the inhibition falls from 12% to 0%.

biological target: PIM2 (human) (UniProt Q9P1W9); assay: radiometric filter-binding kinase assay; conditions: compound 100.0 µM; ATP 5 µM

Compared with `O=C(Nc1cnc2[nH]ccn2c1=O)c1ccccc1`, `O=c1c(NC(=S)NCc2ccccc2)cnc2[nH]ccn12` is lower in inhibition: 9% for the first, 4% for the second.

Compared with `CC(C)(C)Nc1c(COCc2ccccc2)nc2[nH]cnn12`, `CC(=O)Nc1nc2cnc(-c3ccccc3)cn2n1` is lower in inhibition: 16% for the first, 11% for the second.

Compared with `CC1CN(c2nc3ccccn3c(=O)c2N)CC(C)O1` (stereo unspecified), `O=C(c1cccc(-c2cc3c(=O)[nH]cnc3s2)c1)N1CCOCC1` is lower in inhibition: 19% for the first, 13% for the second.

biological target: PKN2 (human) (UniProt Q16513); assay: radiometric filter-binding kinase assay; conditions: compound 100.0 µM; ATP 5 µM

`O=C(Nc1cnc2[nH]ccn2c1=O)c1ccccc1` and `O=c1c(NC(=S)NCc2ccccc2)cnc2[nH]ccn12` are the same in inhibition: 0% for the first, 0% for the second.

Compared with `CC(C)(C)Nc1c(COCc2ccccc2)nc2[nH]cnn12`, `CC(=O)Nc1nc2cnc(-c3ccccc3)cn2n1` is lower in inhibition: 16% for the first, 13% for the second.

`CC1CN(c2nc3ccccn3c(=O)c2N)CC(C)O1` (stereo unspecified) and `O=C(c1cccc(-c2cc3c(=O)[nH]cnc3s2)c1)N1CCOCC1` are the same in inhibition: 0% for the first, 0% for the second.

biological target: BRSK2 (human) (UniProt Q8IWQ3); assay: radiometric filter-binding kinase assay; conditions: compound 100.0 µM; ATP 50 µM
Sequence (Q8IWQ3 whole entry, looked up): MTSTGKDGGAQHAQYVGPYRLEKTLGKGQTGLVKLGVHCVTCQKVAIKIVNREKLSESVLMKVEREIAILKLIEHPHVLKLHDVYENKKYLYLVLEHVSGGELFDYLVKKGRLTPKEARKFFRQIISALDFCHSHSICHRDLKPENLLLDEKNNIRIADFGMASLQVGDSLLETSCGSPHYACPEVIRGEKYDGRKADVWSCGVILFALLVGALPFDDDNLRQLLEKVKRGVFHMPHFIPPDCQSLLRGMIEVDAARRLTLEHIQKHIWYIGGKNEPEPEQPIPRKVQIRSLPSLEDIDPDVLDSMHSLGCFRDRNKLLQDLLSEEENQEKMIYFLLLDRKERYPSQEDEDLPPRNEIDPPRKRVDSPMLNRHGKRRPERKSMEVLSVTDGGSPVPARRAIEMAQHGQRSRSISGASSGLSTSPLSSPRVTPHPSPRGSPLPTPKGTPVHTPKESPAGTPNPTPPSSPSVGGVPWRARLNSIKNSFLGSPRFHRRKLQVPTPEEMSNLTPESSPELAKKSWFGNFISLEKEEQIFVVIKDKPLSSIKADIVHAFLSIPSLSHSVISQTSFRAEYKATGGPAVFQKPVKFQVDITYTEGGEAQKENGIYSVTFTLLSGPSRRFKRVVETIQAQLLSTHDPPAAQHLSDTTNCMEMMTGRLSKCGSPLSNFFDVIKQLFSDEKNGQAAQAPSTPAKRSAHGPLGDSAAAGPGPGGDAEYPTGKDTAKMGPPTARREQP

First: O=C(Nc1cnc2[nH]ccn2c1=O)c1ccccc1
Second: O=c1c(NC(=S)NCc2ccccc2)cnc2[nH]ccn12
The inhibition of the first is higher: 27% for the first, 18% for the second.

Going from `CC(C)(C)Nc1c(COCc2ccccc2)nc2[nH]cnn12` to `CC(=O)Nc1nc2cnc(-c3ccccc3)cn2n1`, the inhibition falls from 22% to 20%.

Going from `CC1CN(c2nc3ccccn3c(=O)c2N)CC(C)O1` (stereo unspecified) to `O=C(c1cccc(-c2cc3c(=O)[nH]cnc3s2)c1)N1CCOCC1`, the inhibition falls from 32% to 30%.

biological target: INSRR (human) (UniProt P14616); assay: radiometric filter-binding kinase assay; conditions: compound 100.0 µM; ATP 5 µM

Going from `O=C(Nc1cnc2[nH]ccn2c1=O)c1ccccc1` to `O=c1c(NC(=S)NCc2ccccc2)cnc2[nH]ccn12`, the inhibition falls from 11% to 0%.

First: CC(C)(C)Nc1c(COCc2ccccc2)nc2[nH]cnn12
Second: CC(=O)Nc1nc2cnc(-c3ccccc3)cn2n1
The inhibition of the first is lower: 4% for the first, 60% for the second.

First: CC1CN(c2nc3ccccn3c(=O)c2N)CC(C)O1 (stereo unspecified)
Second: O=C(c1cccc(-c2cc3c(=O)[nH]cnc3s2)c1)N1CCOCC1
The inhibition of the first is higher: 1% for the first, 0% for the second.

biological target: STK3 (human) (UniProt Q13188); assay: radiometric filter-binding kinase assay; conditions: compound 100.0 µM; ATP 20 µM
Sequence (Q13188 whole entry, looked up): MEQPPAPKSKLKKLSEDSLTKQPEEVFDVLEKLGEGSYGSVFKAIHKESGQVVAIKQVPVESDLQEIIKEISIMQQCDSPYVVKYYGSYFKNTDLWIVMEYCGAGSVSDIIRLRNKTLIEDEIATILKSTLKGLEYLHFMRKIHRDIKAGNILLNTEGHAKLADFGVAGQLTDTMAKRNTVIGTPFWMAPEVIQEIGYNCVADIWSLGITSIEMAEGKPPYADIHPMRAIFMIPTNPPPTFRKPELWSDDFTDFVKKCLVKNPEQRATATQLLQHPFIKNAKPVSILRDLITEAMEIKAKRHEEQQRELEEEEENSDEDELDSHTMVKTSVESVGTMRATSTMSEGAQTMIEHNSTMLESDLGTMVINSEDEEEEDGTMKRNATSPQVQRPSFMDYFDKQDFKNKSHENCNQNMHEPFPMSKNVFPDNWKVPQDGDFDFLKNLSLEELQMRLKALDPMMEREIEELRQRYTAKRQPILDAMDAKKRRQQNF

Going from `O=C(Nc1cnc2[nH]ccn2c1=O)c1ccccc1` to `O=c1c(NC(=S)NCc2ccccc2)cnc2[nH]ccn12`, the inhibition falls from 21% to 3%.

`CC(C)(C)Nc1c(COCc2ccccc2)nc2[nH]cnn12` and `CC(=O)Nc1nc2cnc(-c3ccccc3)cn2n1` are the same in inhibition: 0% for the first, 0% for the second.

Going from `CC1CN(c2nc3ccccn3c(=O)c2N)CC(C)O1` (stereo unspecified) to `O=C(c1cccc(-c2cc3c(=O)[nH]cnc3s2)c1)N1CCOCC1`, the inhibition rises from 0% to 27%.

biological target: TEK (human) (UniProt Q02763); assay: radiometric filter-binding kinase assay; conditions: compound 100.0 µM; ATP 20 µM

`O=C(Nc1cnc2[nH]ccn2c1=O)c1ccccc1` and `O=c1c(NC(=S)NCc2ccccc2)cnc2[nH]ccn12` are the same in inhibition: 0% for the first, 0% for the second.

Going from `CC(C)(C)Nc1c(COCc2ccccc2)nc2[nH]cnn12` to `CC(=O)Nc1nc2cnc(-c3ccccc3)cn2n1`, the inhibition rises from 0% to 11%.

Going from `CC1CN(c2nc3ccccn3c(=O)c2N)CC(C)O1` (stereo unspecified) to `O=C(c1cccc(-c2cc3c(=O)[nH]cnc3s2)c1)N1CCOCC1`, the inhibition falls from 5% to 0%.

biological target: ABL1 (human) (UniProt P00519); assay: radiometric filter-binding kinase assay; conditions: compound 100.0 µM; ATP 5 µM

Compared with `O=C(Nc1cnc2[nH]ccn2c1=O)c1ccccc1`, `O=c1c(NC(=S)NCc2ccccc2)cnc2[nH]ccn12` is lower in inhibition: 4% for the first, 0% for the second.

First: CC(C)(C)Nc1c(COCc2ccccc2)nc2[nH]cnn12
Second: CC(=O)Nc1nc2cnc(-c3ccccc3)cn2n1
The inhibition of the first is lower: 11% for the first, 48% for the second.

Going from `CC1CN(c2nc3ccccn3c(=O)c2N)CC(C)O1` (stereo unspecified) to `O=C(c1cccc(-c2cc3c(=O)[nH]cnc3s2)c1)N1CCOCC1`, the inhibition rises from 2% to 15%.

biological target: BTK (human) (UniProt Q06187); assay: radiometric filter-binding kinase assay; conditions: compound 100.0 µM; ATP 50 µM

First: O=C(Nc1cnc2[nH]ccn2c1=O)c1ccccc1
Second: O=c1c(NC(=S)NCc2ccccc2)cnc2[nH]ccn12
The inhibition of the first is lower: 14% for the first, 16% for the second.

First: CC(C)(C)Nc1c(COCc2ccccc2)nc2[nH]cnn12
Second: CC(=O)Nc1nc2cnc(-c3ccccc3)cn2n1
The inhibition of the first is higher: 51% for the first, 28% for the second.

Compared with `CC1CN(c2nc3ccccn3c(=O)c2N)CC(C)O1` (stereo unspecified), `O=C(c1cccc(-c2cc3c(=O)[nH]cnc3s2)c1)N1CCOCC1` is higher in inhibition: 1% for the first, 46% for the second.

biological target: SYK (human) (UniProt P43405); assay: radiometric filter-binding kinase assay; conditions: compound 100.0 µM; ATP 20 µM

Going from `O=C(Nc1cnc2[nH]ccn2c1=O)c1ccccc1` to `O=c1c(NC(=S)NCc2ccccc2)cnc2[nH]ccn12`, the inhibition falls from 22% to 12%.

Compared with `CC(C)(C)Nc1c(COCc2ccccc2)nc2[nH]cnn12`, `CC(=O)Nc1nc2cnc(-c3ccccc3)cn2n1` is higher in inhibition: 12% for the first, 31% for the second.

Going from `CC1CN(c2nc3ccccn3c(=O)c2N)CC(C)O1` (stereo unspecified) to `O=C(c1cccc(-c2cc3c(=O)[nH]cnc3s2)c1)N1CCOCC1`, the inhibition falls from 13% to 0%.

biological target: SRC (human) (UniProt P12931); assay: radiometric filter-binding kinase assay; conditions: compound 100.0 µM; ATP 50 µM
Sequence (P12931 whole entry, looked up): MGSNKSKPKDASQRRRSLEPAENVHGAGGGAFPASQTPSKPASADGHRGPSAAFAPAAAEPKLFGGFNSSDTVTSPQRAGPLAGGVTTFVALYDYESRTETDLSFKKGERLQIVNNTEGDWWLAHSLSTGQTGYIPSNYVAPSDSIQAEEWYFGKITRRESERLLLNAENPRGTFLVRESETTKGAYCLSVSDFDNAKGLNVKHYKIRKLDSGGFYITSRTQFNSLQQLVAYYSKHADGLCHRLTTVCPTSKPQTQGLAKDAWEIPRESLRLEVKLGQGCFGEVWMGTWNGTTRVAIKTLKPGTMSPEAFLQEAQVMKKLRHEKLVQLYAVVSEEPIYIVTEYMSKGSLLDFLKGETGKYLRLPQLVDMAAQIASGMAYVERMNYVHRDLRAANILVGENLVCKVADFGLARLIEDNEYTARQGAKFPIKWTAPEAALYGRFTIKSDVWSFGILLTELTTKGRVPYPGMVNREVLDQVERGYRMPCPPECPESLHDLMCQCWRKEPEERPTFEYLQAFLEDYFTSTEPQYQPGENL

First: O=C(Nc1cnc2[nH]ccn2c1=O)c1ccccc1
Second: O=c1c(NC(=S)NCc2ccccc2)cnc2[nH]ccn12
The inhibition of the first is higher: 8% for the first, 0% for the second.

Compared with `CC(C)(C)Nc1c(COCc2ccccc2)nc2[nH]cnn12`, `CC(=O)Nc1nc2cnc(-c3ccccc3)cn2n1` is higher in inhibition: 12% for the first, 18% for the second.

Compared with `CC1CN(c2nc3ccccn3c(=O)c2N)CC(C)O1` (stereo unspecified), `O=C(c1cccc(-c2cc3c(=O)[nH]cnc3s2)c1)N1CCOCC1` is lower in inhibition: 73% for the first, 33% for the second.

biological target: NEK2 (human) (UniProt P51955); assay: radiometric filter-binding kinase assay; conditions: compound 100.0 µM; ATP 50 µM

Compared with `O=C(Nc1cnc2[nH]ccn2c1=O)c1ccccc1`, `O=c1c(NC(=S)NCc2ccccc2)cnc2[nH]ccn12` is lower in inhibition: 6% for the first, 4% for the second.

Going from `CC(C)(C)Nc1c(COCc2ccccc2)nc2[nH]cnn12` to `CC(=O)Nc1nc2cnc(-c3ccccc3)cn2n1`, the inhibition rises from 6% to 25%.

Compared with `CC1CN(c2nc3ccccn3c(=O)c2N)CC(C)O1` (stereo unspecified), `O=C(c1cccc(-c2cc3c(=O)[nH]cnc3s2)c1)N1CCOCC1` is higher in inhibition: 0% for the first, 2% for the second.

biological target: EPHB3 (human) (UniProt P54753); assay: radiometric filter-binding kinase assay; conditions: compound 100.0 µM; ATP 20 µM

Going from `O=C(Nc1cnc2[nH]ccn2c1=O)c1ccccc1` to `O=c1c(NC(=S)NCc2ccccc2)cnc2[nH]ccn12`, the inhibition falls from 5% to 0%.

Going from `CC(C)(C)Nc1c(COCc2ccccc2)nc2[nH]cnn12` to `CC(=O)Nc1nc2cnc(-c3ccccc3)cn2n1`, the inhibition falls from 90% to 32%.

Compared with `CC1CN(c2nc3ccccn3c(=O)c2N)CC(C)O1` (stereo unspecified), `O=C(c1cccc(-c2cc3c(=O)[nH]cnc3s2)c1)N1CCOCC1` is higher in inhibition: 0% for the first, 6% for the second.

biological target: PDPK1 (human) (UniProt O15530); assay: radiometric filter-binding kinase assay; conditions: compound 100.0 µM; ATP 20 µM
Sequence (O15530 whole entry, looked up): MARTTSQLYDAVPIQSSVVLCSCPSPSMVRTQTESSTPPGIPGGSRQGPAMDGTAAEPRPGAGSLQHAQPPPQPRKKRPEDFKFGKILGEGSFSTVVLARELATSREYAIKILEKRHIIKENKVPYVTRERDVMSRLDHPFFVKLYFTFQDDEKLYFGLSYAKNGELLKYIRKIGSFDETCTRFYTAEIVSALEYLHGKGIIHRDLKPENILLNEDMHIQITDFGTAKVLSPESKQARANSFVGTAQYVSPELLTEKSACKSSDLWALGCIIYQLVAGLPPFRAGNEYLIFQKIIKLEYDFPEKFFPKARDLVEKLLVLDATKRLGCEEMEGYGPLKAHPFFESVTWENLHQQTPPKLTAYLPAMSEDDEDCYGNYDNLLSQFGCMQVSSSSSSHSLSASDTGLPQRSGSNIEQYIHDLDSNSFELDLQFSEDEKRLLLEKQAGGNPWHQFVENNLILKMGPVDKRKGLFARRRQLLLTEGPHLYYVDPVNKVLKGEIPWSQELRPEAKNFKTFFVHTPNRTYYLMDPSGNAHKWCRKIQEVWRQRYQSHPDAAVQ

Compared with `O=C(Nc1cnc2[nH]ccn2c1=O)c1ccccc1`, `CC(=O)Nc1nc2cnc(-c3ccccc3)cn2n1` is higher in inhibition: 14% for the first, 15% for the second.

For `CC(C)(C)Nc1c(COCc2ccccc2)nc2[nH]cnn12`, the inhibition was 13%.
